{"source": "patent US7495030B2", "about": "“(5-(2-hydroxy-4-chlorobenzoyl) aminovaleric acid and salts thereof and compositions containing the same for delivering active agents” (Emisphere Technologies, Inc., priority 2000, dated 2009)", "key": {"[1]": {"assay": "Insulin oral delivery in rats, serum human insulin by ELISA and serum glucose", "format": "in vivo, Male Sprague-Dawley rats", "conditions": "delivery agent compound dose 200 mg/kg, insulin dose 0.5 mg/kg, volume dose 1.0 ml/kg", "procedure": "Oral dosing (PO) compositions of delivery agent compound and human zinc insulin (minimum 26 IU/mg available from Calbiochem—Novabiochem Corp, La Jolla, Calif.) were prepared in deionized water. […] The solution was vortexed, then heated (about 37° C.) and sonicated. The pH was adjusted to about 7 to 8.5 with NaOH or HCl.\nAbout 1.25 mg insulin from an insulin stock solution (15 mg/ml made from 0.5409 g insulin and […] deionized water, adjusting with HCl and NaOH to pH 8.15 and to obtain a clear solution using […]) was added to the solution and mixed by inverting.\nThe typical dosing and sampling protocols were as follows. […] A dosing group of five animals was administered one of the dosing solutions. […] The syringe was filled with dosing solution by drawing the solution through the catheter, which was then wiped dry. The catheter was placed down the esophagus leaving 1 cm of tubing past the incisors. Solution was administered by pressing the syringe plunger.\nSerum insulin levels were determined with an Insulin ELISA Test Kit (Kit # DSL-10-1600 from Diagnostic Systems Laboratories, Inc., Webster, Tex.), modifying the standard protocol in order to optimize the sensitivity and linear range of the standard curve for the volumes and concentrations of the samples used in the present protocol. […]"}}, "data": [{"smiles": "O=C(O)CCCCNC(=O)c1ccc(Cl)cc1O", "note": "[Compound 1, 5-(2-Hydroxy-4-Chlorobenzoyl)Aminovaleric Acid]", "values": [{"measurement": "melting point", "result": "140 to 141", "unit": "°C"}, {"measurement": "Mean peak serum insulin", "setting": "[1]", "result": "36.25 ± 2.5", "unit": "μU/ml"}]}]}
